# Data from patent US7524851B2 (Robert Bosch Gesellschaft fur Medizinische Forschung (RBMF), priority 2003, dated 2009).
# Columns and labels:
# [1] = test system: caspase-9; assay: Fluorometric protease assay, caspase-9 activity in T lymphocytes; assay type: cell-based, human; conditions: CD3/CD28/rIL-2 stimulated T cells, 5 days
# Protocol: (§1) Caspase-3 proteolytic activity was determined at day 5 by the caspase-3/CPP 32 fluorometric protease assay (Bio Source; Worcester, Mass., USA) according to the manufacturer's protocol. Caspase-8 and caspase-9 proteolytic activity were assessed in parallel by the corresponding fluorometric protease assays (Bio Source).
# [2] = test system: caspase-3; assay: Fluorometric protease assay, caspase-3 activity in T lymphocytes; assay type: cell-based, human; conditions: CD3/CD28/rIL-2 stimulated T cells, 5 days
# Protocol: as §1
# [3] = test system: caspase-8; assay: Fluorometric protease assay, caspase-8 activity in T lymphocytes; assay type: cell-based, human; conditions: CD3/CD28/rIL-2 stimulated T cells, 5 days; on average
# Protocol: as §1
# [4] = test system: bcl-xL; assay: bcl-xL protein expression (Western blot, intracellular FACS); assay type: cell-based, human; conditions: activated T cells
# Protocol: FACS analysis: Analysis of peripheral blood T cells and lamina propria T lymphocytes by FACS (FACSscan; Becton Dickinson; Berlin, Germany) was performed using FITC-labeled murine antibodies to human CD4 (PharMingen), anti-mouse IgG1 isotype control antibodies (PharMingen), antibodies to bcl-xL and p mitogen-activated protein kinase kinase (pMEK) (Santa Cruz Biotech; Santa Cruz, Calif., USA), and goat anti-mouse Fab-FITC (DAKO). For intracellular staining analysis, T cells were fixed in PBS/4% paraformaldehyde (Merck; Munich, Germany) for 10 minutes at 4° C., washed twice in PBS, permeabilized in PBS/0.1% Triton X-100 (Sigma-Aldrich; Steinheim, Germany), and treated with mouse anti-human bcl-xL or MEK antibodies (2 μg per 5×10^5 cells) for 30 minutes on ice. T cells were washed twice in PBS/0.1% Triton X-100 before incubation with goat anti-mouse Fab-FITC (2 μl per 10^5 cells). Finally, T cells were washed twice in PBS before FACS analysis.
# The cells were then washed in PBS, resuspended in 1 ml of T40E10N150 buffer (40 mM Tris-HCl [pH 7.9], 10 mM EDTA [pH 8.0], 150 mM NaCl), put on ice for 5 minutes, and centrifuged for 4 minutes at 4° C. at 1,000 rpm. […] The protein concentrations in supernatants were determined with the Bio-Rad Protein Assay (Bio-Rad; Munich, Germany). […]
# [5] = test system: NF-κB p50/p65; assay: NF-κB electrophoretic mobility shift assay; assay type: cell-based, human; conditions: EMSA
# Protocol: Isolation of nuclear proteins: T lymphocytes were washed twice in cold PBS and resuspended in 500 μl of buffer A (10 mM HEPES, 1.5 mM MgCl2, 19 mM KCl, 0.5 mM PMSF, 1 mM DTT) followed by addition of 20 μl of Triton X-100 (Sigma-Aldrich) and incubation on ice for 5 minutes. Cells were centrifuged for 10 minutes at 4° C., followed by the resuspension of the nuclear pellet in buffer C (20 mM HEPES, 1.5 mM MgCl2, 0.2 mM EDTA, 25% glycerol, 0.5 mM PMSF, 1 mM DTT). Finally, the nuclei were homogenized using mini stir bars for 1 hour at 4° C. followed by centrifugation at 15,000 rpm for 15 minutes at 4° C. The concentration of nuclear proteins in supernatants was assessed using the Bio-Rad Protein Assay.
# Electrophoretic mobility shift assays: Electrophoretic mobility shift assays (EMSAs) were performed as described in Atreya et al., supra. Oligonucleotides for EMSA were obtained from Santa Cruz Biotech (Heidelberg, Germany). The sequences were as follows: NF-κB, 5′-[sequence]-3′ (SEQ ID NO: 1) and 3′-[sequence]-5′ (SEQ ID NO: 2); and SP-1,5′-[sequence]-3′ (SEQ ID NO: 3) and 3′-[sequence]-5′ (SEQ ID NO: 4). Oligonucleotides were end labeled with [^32P]γ-ATP (>5000 Ci/mmol; Amersham; Arlington Heights, Ill., USA) using T4 polynucleotide kinase (New England Biolabs; Beverly, Mass., USA). […]
# [6] = test system: IκB; assay: IκB phosphorylation and expression (Western blot); assay type: cell-based, human; conditions: 3 days
# Protocol: The cells were then washed in PBS, resuspended in 1 ml of T40E10N150 buffer (40 mM Tris-HCl [pH 7.9], 10 mM EDTA [pH 8.0], 150 mM NaCl), put on ice for 5 minutes, and centrifuged for 4 minutes at 4° C. at 1,000 rpm. The cell pellet was then resuspended on ice in 70 μl of buffer (10 mM HEPES [pH 8.0], 400 mM NaCl, 0.1 mM EDTA, 5% glycerol, 1 mM DTT, 1 mM PMSF) and centrifuged at 15,000 rpm for 30 minutes at 4° C. The protein concentrations in supernatants were determined with the Bio-Rad Protein Assay (Bio-Rad; Munich, Germany).
# Western blots: Equal amounts of extract (30 μg) were added to 8 μl of electrophoresis sample buffer (Firma Roth; Karlsruhe, Germany). After boiling, the extracts were loaded on 15% SDS-PAGE gels and electrophoretically separated. Proteins were transferred to nitrocellulose membranes, and detection was performed with the ECL Western blotting analysis system (Amersham). […]
# [7] = test system: bcl-xL mRNA; conditions: anti-CD3- plus anti-CD28-activated T lymphocytes
# Protocol: The mRNA of T cells was extracted at the indicated time points using the Tri-reagent (Sigma-Aldrich) according to the manufacturer's protocol. In brief, the cell pellet was lysed in 1 ml of Tri-reagent before addition of 200 μl of chloroform (Sigma-Aldrich; Steinheim, Germany). Each sample was gently mixed before incubation (for 5 minutes at 20° C.) and centrifugation (12,000 g for 15 minutes at 4° C.). The aqueous phase was transferred to a fresh tube, and 0.5 ml of isopropanol (Sigma-Aldrich) was added. Samples were allowed to stand for 5 minutes at room temperature before centrifugation at 12,000 g (for 10 minutes at 4° C.). The supernatants were removed, and the RNA pellet was washed in 75% ethanol.
# Gene arrays: mRNA from T lymphocytes was analyzed by the human apoptosis expression array (R&D) as follows. To generate radiolabeled cDNA, 4 μl of human apoptosis-specific primers (R&D) were added to 4 μg of the isolated mRNA, heated in a thermal cycler at 90° C. for 2 minutes, and incubated at 42° C. for 180 minutes in the presence of reverse transcriptase buffer (50 mM Tris-HCl, 8 mM MgCl2, 30 mM KCl, 1 mM DTT), 333 μM dATP, 333 μM dGTP, 333 μM dTTP, 1.67 μM dCTP, 20 U of RNasin, 20 μCi of ^32P-labeled dCTP (Amersham; Freiburg, Germany), and 50 U of AMV reverse transcriptase. […]
# [8] = all 47 CD patients
# Protocol: Blood Sampling: Blood samples from patients were collected into EDTA tubes and the packed red blood cells (RBCs) were isolated by centrifugation within 6 hours after blood drawing. The RBCs were immediately frozen at −80° C. until analysis.
# 6-thioguanine nucleotides (6-TGN) and the methylated metabolites S-methyl-mercaptopurine ribonucleotides (6-MMPR) and S-methyl 6-thioguanosine nucleotides (MTGN) were quantified by a high-performance liquid chromatographic (HPLC) assay as described in Herrlinger et al., Aliment Pharmacol Ther. 19:1269-1276 (2004).
# The concentrations of 6-thioguanosine 5′-mono-, di-, and triphosphate (TGMP, TGDP, and TGTP, respectively) were determined separately by the method described in Example 2 above. […] The 5′-phosphates were isolated, extracted, and oxidized as described by Rabel et al., Anal. Biochem. 224:315-322 (1995) with slight modifications. HPLC separation was achieved by reversed phase HPLC on a C18 column with phosphate buffer (20 mM, pH 6.8) and 5 mM tetrabutylammonium hydrogen sulfate/acetonitrile 84:16 (v/v) as the mobile phase. Using fluorescence detection, quantification of 6-thioguanosine nucleotides was performed at concentration ranges of 25 to 400 pmol/100 μL RBC for TGTP, 10 to 100 pmol/100 μL for TGDP, and 10 to 50 pmol/100 μL RBC for TGMP.
smiles,measurement,setting,value
"Sc1ncnc2nc[nH]c12 [6-MP, 6-mercaptopurine]",caspase-9 activity,[1],marked induction
same,caspase-3 activity,[2],marked induction
same,induction of caspase-8,[3],less pronounced
same,bcl-xL protein expression,[4],strongly suppressed
same,nuclear expression of the p65 subunit of NF-κB,[5],downregulated
same,CD28-induced activation of NF-κB p50/p65,[5]; nuclear proteins after 3 days,suppressed
same,IκB phosphorylation,[6],suppressed
same,IκB protein expression levels,[6],unchanged
"Cn1cnc([N+](=O)[O-])c1Sc1ncnc2nc[nH]c12 [azathioprine, Azathioprine]",bcl-xL protein expression,[4],strongly suppressed
same,bcl-xL mRNA expression,[7],strongly suppressed
same,"mRNA expression of other genes such as IL-2R, TACI, and GAPDH",[7],not affected
same,TGMP levels in RBC,[8],only detectable in traces
